Data: patent US12269800B2, “Delivery of therapeutic alkaloid compounds” (priority 2021, dated 2025)
Read-outs that look alike come from different tables or passages of the source.

Key:
[1] = Hydrolysis Assay of Example A2, Condition 1 (SGF with pepsin, pH 1.5, 37° C.); format: physicochemical; conditions: SGF with pepsin pH 1.5, 37° C.; for Condition 1 Conversion (%): 0.5 mM; for Condition 1 Conversion (%), second value of a/b: value after the slash
[2] = 5 µM
Experimental: (§1) 50 uL aliquots of positive controls and test compounds spiked into rat or human plasma (n=2) were added to a pre-warmed plate (37° C.) and shaken at 50 rpm. At each respective time point, the reaction was stopped by adding 500 μL of acetonitrile containing internal standards (100 nM aprozolam, 200 nM caffeine, 100 nM tolbutamide). All samples were vortexed for 10 minutes, followed by centrifugation at 3,220 g for 30 minutes to precipitate proteins. 100 μL of the supernatant is transferred to a new plate. The supernatant will be diluted with ultrapure water according to the LC-MS signal response and peak shape.

[3] = 5 µM; remark: listed apart in the source
Experimental: as §1

With `COc1ccc([C@@]23CC/C(=N/OC(C)(C)OC)C[C@@H]2N(C)CC3)cc1OC` [Compound 219, (Z,3aS,7aS)-3a-(3,4-dimethoxyphenyl)-N-(1-methoxy-1-methyl-ethoxy)-1-methyl-2,3,4,5,7,7a-hexahydroindol-6-imine] the “Condition 1 Conversion (%)” value ([1]; time 1 min) was 100%, the “Condition 1 Conversion (%)” value ([1]; time 5 min) was 100% and the “Condition 1 Conversion (%)” value ([1]; time 30 min) was 0%. The “Condition 1 Conversion (%)” value ([1]; time 1 h) was 0%, the “Condition 1 Conversion (%)” value ([1]; time 4 h) was 0% and the “Condition 1 Conversion (%)” value ([1]; time 24 h) was 0%. The “Condition 1 Conversion (%), second value of a/b” value ([1]; time 1 min) was 0%, the “Condition 1 Conversion (%), second value of a/b” value ([1]; time 5 min) was 0% and the “Condition 1 Conversion (%), second value of a/b” value ([1]; time 30 min) was 100%. The “Condition 1 Conversion (%), second value of a/b” value ([1]; time 1 h) was 100%, the “Condition 1 Conversion (%), second value of a/b” value ([1]; time 4 h) was 100% and the “Condition 1 Conversion (%), second value of a/b” value ([1]; time 24 h) was 100%.

For `COc1ccc([C@@]23CCC(OC(=O)c4c(C)cc(C)cc4C)=C[C@@H]2N(C)CC3)cc1OC` [Compound 356, (3aS,7aS)-3a-(3,4-dimethoxyphenyl)-1-methyl-2,3,3a,4,5,7a-hexahydro-1H-indol-6-yl 2,4,6-trimethylbenzoate], the “Rat Plasma Prodrug (%)” value ([2]; 0 min) was 100.0%, the “Rat Plasma Prodrug (%)” value ([2]; 10 min) was over 99% and the “Rat Plasma Prodrug (%)” value ([2]; 30 min) was over 99%. For the same compound, the “Rat Plasma Prodrug (%)” value ([2]; 60 min) was over 99%, the “Rat Plasma Prodrug (%)” value ([2]; 120 min) was over 99% and the “Rat Plasma Prodrug (%)” value ([2]; 240 min) was 95.8%. The “Human Plasma Prodrug (%)” value ([3]; 0 min) was 100.0%, the “Human Plasma Prodrug (%)” value ([3]; 10 min) was over 99% and the “Human Plasma Prodrug (%)” value ([3]; 30 min) was over 99%. The “Human Plasma Prodrug (%)” value ([3]; 60 min) was over 99%, the “Human Plasma Prodrug (%)” value ([3]; 120 min) was over 99% and the “Human Plasma Prodrug (%)” value ([3]; 240 min) was over 99%.

For `CCCCCCCC(=O)OC1=C[C@@H]2N(C)CC[C@]2(c2ccc(OC)c(OC)c2)CC1` [Compound 395, (3aS,7aS)-3a-(3,4-dimethoxyphenyl)-1-methyl-2,3,3a,4,5,7a-hexahydro-1H-indol-6-yl octanoate], the “Rat Plasma Prodrug (%)” value ([2]; 0 min) was 100.0%, the “Rat Plasma Prodrug (%)” value ([2]; 10 min) was 0.3% and the “Rat Plasma Prodrug (%)” value ([2]; 30 min) was 0.1%. The “Rat Plasma Prodrug (%)” value ([2]; 60 min) was 0.1%, the “Rat Plasma Prodrug (%)” value ([2]; 120 min) was 0.1% and the “Rat Plasma Prodrug (%)” value ([2]; 240 min) was 0.1%. For the same compound, the “Human Plasma Prodrug (%)” value ([3]; 0 min) was 100.0%, the “Human Plasma Prodrug (%)” value ([3]; 10 min) was 13.9% and the “Human Plasma Prodrug (%)” value ([3]; 30 min) was 3.5%. The “Human Plasma Prodrug (%)” value ([3]; 60 min) was 1.1%, the “Human Plasma Prodrug (%)” value ([3]; 120 min) was 0.3% and the “Human Plasma Prodrug (%)” value ([3]; 240 min) was 0.1%.

With `COc1ccc([C@@]23CCC(OC(=O)CCN)=C[C@@H]2N(C)CC3)cc1OC` [Compound 397, (3aS,7aS)-3a-(3,4-dimethoxyphenyl)-1-methyl-2,3,3a,4,5,7a-hexahydro-1H-indol-6-yl 3-aminopropanoate] the “Rat Plasma Prodrug (%)” value ([2]; 0 min) was 100.0%, the “Rat Plasma Prodrug (%)” value ([2]; 10 min) was 10.5% and the “Rat Plasma Prodrug (%)” value ([2]; 30 min) was 0.5%. The “Rat Plasma Prodrug (%)” value ([2]; 60 min) was 0.1%, the “Rat Plasma Prodrug (%)” value ([2]; 120 min) was 0.1% and the “Rat Plasma Prodrug (%)” value ([2]; 240 min) was 0.1%. For the same compound, the “Human Plasma Prodrug (%)” value ([3]; 0 min) was 100.0%, the “Human Plasma Prodrug (%)” value ([3]; 10 min) was 2.2% and the “Human Plasma Prodrug (%)” value ([3]; 30 min) was 0.5%. The “Human Plasma Prodrug (%)” value ([3]; 60 min) was 0.1%, the “Human Plasma Prodrug (%)” value ([3]; 120 min) was 0.2% and the “Human Plasma Prodrug (%)” value ([3]; 240 min) was 0.0%.

For `CCCC(CC)CC(=O)OC1=C[C@@H]2N(C)CC[C@]2(c2ccc(OC)c(OC)c2)CC1` (stereo partly drawn) [Compound 398, (3aS,7aS)-3a-(3,4-dimethoxyphenyl)-1-methyl-2,3,3a,4,5,7a-hexahydro-1H-indol-6-yl 3-ethylhexanoate], the “Rat Plasma Prodrug (%)” value ([2]; 0 min) was 100.0%, the “Rat Plasma Prodrug (%)” value ([2]; 10 min) was 2.8% and the “Rat Plasma Prodrug (%)” value ([2]; 30 min) was 0.7%. For the same compound, the “Rat Plasma Prodrug (%)” value ([2]; 60 min) was 0.1%, the “Rat Plasma Prodrug (%)” value ([2]; 120 min) was 0.0% and the “Rat Plasma Prodrug (%)” value ([2]; 240 min) was 0.0%. For the same compound, the “Human Plasma Prodrug (%)” value ([3]; 0 min) was 100.0%, the “Human Plasma Prodrug (%)” value ([3]; 10 min) was 96.4% and the “Human Plasma Prodrug (%)” value ([3]; 30 min) was 85.0%. For the same compound, the “Human Plasma Prodrug (%)” value ([3]; 60 min) was 72.4%, the “Human Plasma Prodrug (%)” value ([3]; 120 min) was 51.6% and the “Human Plasma Prodrug (%)” value ([3]; 240 min) was 25.5%.

With `COc1ccc([C@@]23CCC(OC(=O)CCC(C)C)=C[C@@H]2N(C)CC3)cc1OC` [Compound 399, (3aS,7aS)-3a-(3,4-dimethoxyphenyl)-1-methyl-2,3,3a,4,5,7a-hexahydro-1H-indol-6-yl 4-methylpentanoate] the “Rat Plasma Prodrug (%)” value ([2]; 0 min) was 100.0%, the “Rat Plasma Prodrug (%)” value ([2]; 10 min) was 0.0% and the “Rat Plasma Prodrug (%)” value ([2]; 30 min) was 0.0%. For the same compound, the “Rat Plasma Prodrug (%)” value ([2]; 60 min) was 0.0%, the “Rat Plasma Prodrug (%)” value ([2]; 120 min) was 0.0% and the “Rat Plasma Prodrug (%)” value ([2]; 240 min) was 0.0%. For the same compound, the “Human Plasma Prodrug (%)” value ([3]; 0 min) was 100.0%, the “Human Plasma Prodrug (%)” value ([3]; 10 min) was 5.6% and the “Human Plasma Prodrug (%)” value ([3]; 30 min) was 1.1%. For the same compound, the “Human Plasma Prodrug (%)” value ([3]; 60 min) was 0.5%, the “Human Plasma Prodrug (%)” value ([3]; 120 min) was 0.3% and the “Human Plasma Prodrug (%)” value ([3]; 240 min) was 0.2%.

With `CCCCCC(C)C(=O)OC1=C[C@@H]2N(C)CC[C@]2(c2ccc(OC)c(OC)c2)CC1` (stereo partly drawn) [Compound 400, (3aS,7aS)-3a-(3,4-dimethoxyphenyl)-1-methyl-2,3,3a,4,5,7a-hexahydro-1H-indol-6-yl 2-methylheptanoate] the “Rat Plasma Prodrug (%)” value ([2]; 0 min) was 100.0%, the “Rat Plasma Prodrug (%)” value ([2]; 10 min) was 12.6% and the “Rat Plasma Prodrug (%)” value ([2]; 30 min) was 0.6%. For the same compound, the “Rat Plasma Prodrug (%)” value ([2]; 60 min) was 0.1%, the “Rat Plasma Prodrug (%)” value ([2]; 120 min) was 0.1% and the “Rat Plasma Prodrug (%)” value ([2]; 240 min) was 0.0%. The “Human Plasma Prodrug (%)” value ([3]; 0 min) was 100.0%, the “Human Plasma Prodrug (%)” value ([3]; 10 min) was 34.7% and the “Human Plasma Prodrug (%)” value ([3]; 30 min) was 11.6%. The “Human Plasma Prodrug (%)” value ([3]; 60 min) was 5.2%, the “Human Plasma Prodrug (%)” value ([3]; 120 min) was 2.3% and the “Human Plasma Prodrug (%)” value ([3]; 240 min) was 1.9%.

With `CCCCC(CC)C(=O)OC1=C[C@@H]2N(C)CC[C@]2(c2ccc(OC)c(OC)c2)CC1` (stereo partly drawn) [Compound 401, (3aS,7aS)-3a-(3,4-dimethoxyphenyl)-1-methyl-2,3,3a,4,5,7a-hexahydro-1H-indol-6-yl 2-ethylhexanoate] the “Rat Plasma Prodrug (%)” value ([2]; 0 min) was 100.0%, the “Rat Plasma Prodrug (%)” value ([2]; 10 min) was 84.5% and the “Rat Plasma Prodrug (%)” value ([2]; 30 min) was 55.8%. The “Rat Plasma Prodrug (%)” value ([2]; 60 min) was 33.8%, the “Rat Plasma Prodrug (%)” value ([2]; 120 min) was 16.3% and the “Rat Plasma Prodrug (%)” value ([2]; 240 min) was 3.3%. For the same compound, the “Human Plasma Prodrug (%)” value ([3]; 0 min) was 100.0%, the “Human Plasma Prodrug (%)” value ([3]; 10 min) was 95.9% and the “Human Plasma Prodrug (%)” value ([3]; 30 min) was over 99%. For the same compound, the “Human Plasma Prodrug (%)” value ([3]; 60 min) was 96.6%, the “Human Plasma Prodrug (%)” value ([3]; 120 min) was 94.4% and the “Human Plasma Prodrug (%)” value ([3]; 240 min) was 93.4%.

For `CCCC(C)C(=O)OC1=C[C@@H]2N(C)CC[C@]2(c2ccc(OC)c(OC)c2)CC1` (stereo partly drawn) [Compound 402, (3aS,7aS)-3a-(3,4-dimethoxyphenyl)-1-methyl-2,3,3a,4,5,7a-hexahydro-1H-indol-6-yl 2-methylpentanoate], the “Rat Plasma Prodrug (%)” value ([2]; 0 min) was 100.0%, the “Rat Plasma Prodrug (%)” value ([2]; 10 min) was 3.5% and the “Rat Plasma Prodrug (%)” value ([2]; 30 min) was 0.1%. The “Rat Plasma Prodrug (%)” value ([2]; 60 min) was 0.0%, the “Rat Plasma Prodrug (%)” value ([2]; 120 min) was 0.0% and the “Rat Plasma Prodrug (%)” value ([2]; 240 min) was 0.0%. The “Human Plasma Prodrug (%)” value ([3]; 0 min) was 100.0%, the “Human Plasma Prodrug (%)” value ([3]; 10 min) was 11.3% and the “Human Plasma Prodrug (%)” value ([3]; 30 min) was 2.9%. The “Human Plasma Prodrug (%)” value ([3]; 60 min) was 2.1%, the “Human Plasma Prodrug (%)” value ([3]; 120 min) was 1.6% and the “Human Plasma Prodrug (%)” value ([3]; 240 min) was 1.1%.

In the case of “N-[[(3aS,7aS)-3a-(3,4-dimethoxyphenyl)-1-methyl-3,4,7,7a-tetrahydro-2H-indol-6-yl]3,4-dimethoxybenzoate [Compound 302]”, the “Condition 1 Conversion (%)” value ([1]; time 1 min) is reported as 0%, the “Condition 1 Conversion (%)” value ([1]; time 5 min) is reported as 0% and the “Condition 1 Conversion (%)” value ([1]; time 30 min) is reported as 0%. The “Condition 1 Conversion (%)” value ([1]; time 1 h) was 0%, the “Condition 1 Conversion (%)” value ([1]; time 4 h) was 0% and the “Condition 1 Conversion (%)” value ([1]; time 24 h) was 0%.
